Reference: patent US8399465B2, “Compounds with two fused bicyclic heteroaryl moieties as modulators of leukotriene A4 hydrolase” (Janssen Pharmaceutica NV, priority 2009, dated 2013)

Experiments:
[1] = test system: LTB4 production in murine blood (LTA4H); assay: LTB4 production by calcium ionophore-stimulated murine blood for LTA4H inhibitor activity; type: cell-based, CD-1 mice; conditions: Mus musculus; murine blood diluted 1 in 15, A23187 stimulated; single determination or average; mark after value = form tested: ′ free base, ″ hydrochloride, ^ formate; read-out: IC50
How it was run: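 Heparinized blood from CD-1 mice was preincubated with compound for 15 min at 37° C, then stimulated with calcium ionophore A23187 (final 7 μg/mL) for 30 min. Centrifugation stopped the reaction, and LTB4 in the supernatant was measured by enzyme immunoassay. Values are single determinations or means of two or more.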

[2] = target: T1, recombinant human LTA4 hydrolase (rhLTA4H) (Homo sapiens, UniProt P09960); assay: Recombinant human LTA4 hydrolase assay for LTA4 hydrolase inhibitor activity; type: biochemical; conditions: rhLTA4H, LTB4 by immunoassay; single determination or average of two or more; mark after value = form tested: ′ free base, ″ hydrochloride, ^ formate; read-out: IC50
T1 construct: made in house; host or cells: Spodoptera frugiperda (Sf-9) cells, baculovirus (pFastBac1)
T1 sequence (P09960 1-611): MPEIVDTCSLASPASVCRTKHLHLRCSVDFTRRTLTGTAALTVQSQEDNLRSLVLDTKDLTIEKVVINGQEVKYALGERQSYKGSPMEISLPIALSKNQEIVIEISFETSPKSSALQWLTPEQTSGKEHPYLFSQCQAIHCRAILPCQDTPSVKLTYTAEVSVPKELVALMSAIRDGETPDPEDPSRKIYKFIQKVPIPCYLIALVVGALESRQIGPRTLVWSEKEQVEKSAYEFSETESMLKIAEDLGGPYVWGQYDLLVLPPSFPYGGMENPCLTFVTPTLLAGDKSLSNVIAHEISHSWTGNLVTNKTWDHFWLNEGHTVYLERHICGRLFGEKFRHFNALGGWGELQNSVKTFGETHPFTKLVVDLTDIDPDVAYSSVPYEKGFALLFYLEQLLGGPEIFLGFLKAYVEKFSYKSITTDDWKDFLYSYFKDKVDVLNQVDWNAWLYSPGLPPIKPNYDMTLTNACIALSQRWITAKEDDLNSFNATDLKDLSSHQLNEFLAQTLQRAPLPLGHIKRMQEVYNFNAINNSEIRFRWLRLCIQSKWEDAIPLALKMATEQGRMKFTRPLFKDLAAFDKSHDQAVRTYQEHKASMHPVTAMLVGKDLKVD
How it was run: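 Baculovirus/Sf-9-expressed human LTA4H (10 ng) was preincubated 10 min at rt with compound in assay buffer (10% DMSO in compound dilution), then reacted 30 min at rt with LTA4 free acid made from its methyl ester. LTB4 produced was measured by ELISA after dilution; IC50 from non-linear regression, single or averaged determinations.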

[3] = test system: arachidonic acid-induced neutrophil influx in murine ear tissue; assay: Murine arachidonic acid-induced inflammation model: neutrophil influx (myeloperoxidase) in ear; type: in vivo, Balb/c mice; conditions: Mus musculus; 30 mg/kg oral gavage, 60 min before topical arachidonic acid, ear biopsy after 3 h; percent inhibition of neutrophil influx; read-out: % Inh. MPO
Description: (§1) Assay 3: Murine Arachidonic Acid-Induced Inflammation Model
(§2) LTA4H inhibitor compounds of the present invention were dissolved in 20% cyclodextran/H2O at a concentration of 3 mg/mL. The solutions were administered by oral gavage to female Balb/c mice weighing approximately 20 grams each (0.2 mL per mouse, 30 mg of LTA4H inhibitor compound per kg). Sixty minutes after being administered an LTA4 inhibitor, each mouse received topical application of 20 μL of arachidonic acid (100 mg/mL in acetone) to the left ear and 20 μL of acetone only to the right ear. After 3 h, the mice were sacrificed, blood was withdrawn in heparinized syringes, and 8 mm ear biopsies were taken. Ear biopsies were weighed to determine edema and then frozen at −80° C. until needed for determination of neutrophil influx.
Neutrophil influx was quantified by measuring the activity of myeloperoxidase (MPO), a neutrophil-specific enzyme. […] Debris was removed by centrifugation at 14000×g for 10 min. […] The microtiter plate contents were held at room temperature until the sample with the highest concentration of MPO reached an absorbance value of 0.4 at 650 nm. The reaction was stopped by addition of 50 μL 1 M H2SO4 to each sample well, and the myeloperoxidase activity in each sample was determined from the absorbance at […]. The background value from the right ear, treated only with acetone, was subtracted from that for the left ear, treated with arachidonic acid in acetone, for each animal. The percent inhibition of neutrophil influx (% Inh. MPO) by compounds of the invention was determined by comparison to animals treated identically, except that the solution administered by oral gavage was devoid of inhibitor compound. All compounds were assayed in their free base form.

[4] = test system: ex vivo calcium ionophore-stimulated LTB4 production in whole blood; assay: Murine arachidonic acid-induced inflammation model: ex vivo stimulated LTB4 production in blood; set-up: species or system Balb/c mice; conditions: Mus musculus; 30 mg/kg oral gavage; blood diluted 1:1, A23187 stimulated ex vivo; percent inhibition of LTB4 production; read-out: % Inh. LTB4
Description: as §1, §2
The microtiter plate contents were incubated for 30 min at 37° C. in a humidified incubator. The reaction was terminated by centrifugation (833×g, 10 min at 4° C.). Supernatants were analyzed for LTB4 by a commercially available enzyme-linked immunoassay (Cayman Chemical Co.) in accordance with the manufacturer's instructions. The percent inhibition of ex vivo stimulated LTB4 production (% Inh. LTB4) was determined by comparison to animals treated identically except that the solution administered by oral gavage was devoid of inhibitor compound.

Structure (SMILES) | IC50 [1] [nM] | IC50 [2] [nM] | inhibition at 30 mg/kg [3] [%] | inhibition at 30 mg/kg [4] [%]
c1cnc2nc(Oc3ccc4c(CN5CCOCC5)coc4c3)sc2c1 [Example 156, 2-(3-Morpholin-4-ylmethyl-benzofuran-6-yloxy)-thiazolo[4,5-b]pyridine] | 21 | 17 | 86 | 91
CC(=O)N1C[C@H]2C[C@@H]1CN2Cc1coc2cc(Oc3nc4ncccc4s3)ccc12 [Example 157, (1R,4R)-1-{5-[6-(Thiazolo[4,5-b]pyridin-2-yloxy)-benzofuran-3-ylmethyl]-2,5-diaza-bicyclo[2.2.1]hept-2-yl}-ethanone] | 16 | 8 | 93 | 97
c1cnc2nc(Oc3ccc4c(CN5C[C@@H]6C[C@H]5CO6)coc4c3)sc2c1 [Example 158, (1S,4S)-2-[3-(2-Oxa-5-aza-bicyclo[2.2.1]hept-5-ylmethyl)-benzofuran-6-yloxy]-thiazolo[4,5-b]pyridine] | 32 | 6 | 87 | 95
C[C@H]1COCCN1Cc1coc2cc(Oc3nc4ncccc4s3)ccc12 [Example 159, (S)-2-[3-(3-Methyl-morpholin-4-ylmethyl)-benzofuran-6-yloxy]-thiazolo[4,5-b]pyridine] | 79 | 16 | 78 | 83
NC(=O)N1C[C@H]2C[C@@H]1CN2Cc1coc2cc(Oc3nc4ncccc4s3)ccc12 [Example 160, (1R,4R)-5-[6-(Thiazolo[4,5-b]pyridin-2-yloxy)-benzofuran-3-ylmethyl]-2,5-diaza-bicyclo[2.2.1]heptane-2-carboxylic acid amide] | 49 | 5 | 77 | 90
CC(=O)NCC1CCN(Cc2coc3cc(Oc4nc5ncccc5s4)ccc23)CC1 [Example 162, N-{1-[6-(Thiazolo[4,5-b]pyridin-2-yloxy)-benzofuran-3-ylmethyl]-piperidin-4-ylmethyl}-acetamide] | 26 | 1 | 87 | 90
CC(=O)N1CCC2(CCN(Cc3cc4cc(Oc5nc6ncccc6s5)ccc4o3)CC2)CC1 [Example 167, 1-{9-[5-(Thiazolo[4,5-b]pyridin-2-yloxy)-benzofuran-2-ylmethyl]-3,9-diaza-spiro[5.5]undec-3-yl}-ethanone] | 220 | 88 | 77 | 78
CC(=O)N1C[C@@H]2C[C@H]1CN2Cc1cc2ccc(Oc3nc4ncccc4s3)cc2o1 [Example 168, (1S,4S)-1-{5-[6-(Thiazolo[4,5-b]pyridin-2-yloxy)-benzofuran-2-ylmethyl]-2,5-diaza-bicyclo[2.2.1]hept-2-yl}-ethanone] | 210 | 36 | 74 | 70
CC(=O)N1C[C@@H]2CC[C@H]1CN2Cc1cc2cc(Oc3nc4ncccc4s3)ccc2o1 [Example 169, meso-1-{5-[5-(Thiazolo[4,5-b]pyridin-2-yloxy)-benzofuran-2-ylmethyl]-2,5-diaza-bicyclo[2.2.2]oct-2-yl}-ethanone] | 23 | 3 | 92 | 85
CC(=O)N1C[C@@H]2CC[C@H]1CN2Cc1cc2ccc(Oc3nc4ncccc4s3)cc2o1 [Example 170, meso-1-{5-[6-(Thiazolo[4,5-b]pyridin-2-yloxy)-benzofuran-2-ylmethyl]-2,5-diaza-bicyclo[2.2.2]oct-2-yl}-ethanone] | 80 | 5 | 70 | 76
CN(Cc1ccncc1)Cc1coc2cc(Oc3nc4ncccc4s3)ccc12 [Example 177, Methyl-pyridin-4-ylmethyl-[6-(thiazolo[4,5-b]pyridin-2-yloxy)-benzofuran-3-ylmethyl]-amine] | 110 | 13 | 12 | 70
CC(=O)N1CCCN(Cc2coc3cc(Oc4nc5ncccc5s4)ccc23)CC1 [Example 182, 1-{4-[6-(Thiazolo[4,5-b]pyridin-2-yloxy)-benzofuran-3-ylmethyl]-[1,4]diazepan-1-yl}-ethanone] | 39 | 9 | 67 | 85
CS(=O)(=O)C1CCN(Cc2coc3cc(Oc4nc5ncccc5s4)ccc23)CC1 [Example 183, 2-[3-(4-Methanesulfonyl-piperidin-1-ylmethyl)-benzofuran-6-yloxy]-thiazolo[4,5-b]pyridine] | 57 | 6 | 85 | 83
COCCN(C)Cc1coc2cc(Oc3nc4ncccc4s3)ccc12 [Example 184, (2-Methoxy-ethyl)-methyl-[6-(thiazolo[4,5-b]pyridin-2-yloxy)-benzofuran-3-ylmethyl]-amine] | 49 | 8 | 53 | 82
c1cnc2nc(Oc3ccc4c(CN5CCCC5)coc4c3)sc2c1 [Example 185, 2-(3-Pyrrolidin-1-ylmethyl-benzofuran-6-yloxy)-thiazolo[4,5-b]pyridine] | 12 | 4 | 64 | 75
COC[C@@H]1CCCN1Cc1coc2cc(Oc3nc4ncccc4s3)ccc12 [Example 186, (2S)-2-[3-(2-Methoxymethyl-pyrrolidin-1-ylmethyl)-benzofuran-6-yloxy]-thiazolo[4,5-b]pyridine] | 6 | 1 | 79 | 86
CC(=O)N[C@H]1C[C@@H]2C[C@H]1CN2Cc1coc2cc(Oc3nc4ncccc4s3)ccc12 [Example 187, (1S,4S,5S)—N-{2-[6-(Thiazolo[4,5-b]pyridin-2-yloxy)-benzofuran-3-ylmethyl]-2-aza-bicyclo[2.2.1]hept-5-yl}-acetamide] | 21 | 1 | 88 | 83
CC(=O)N[C@H]1C[C@@H]2C[C@H]1CN2Cc1cc2cc(Oc3nc4ncccc4s3)ccc2o1 [Example 188, (1S,4S,5S)—N-{2-[5-(Thiazolo[4,5-b]pyridin-2-yloxy)-benzofuran-2-ylmethyl]-2-aza-bicyclo[2.2.1]hept-5-yl}-acetamide] | 63 | 26 | 78 | 73
